Where “and” joins values, the source holds several entries; their conditions need not be identical. Equal values may be shown once.
Key:
[1] = effects on testis function: body, testis and seminal vesicle weight; format: in vivo, mice (ICR-Swiss adult male); conditions: average; 0.2 mg per day s.c., 10 days
Method: The compounds as shown in Table 7 were dissolved in a minimal amount of ethanol and diluted in sesame oil (1 mg/ml). After dilution, samples were stored at 5° C in the dark and flushed with N2 every 24 hours. The compounds were injected subcutaneously into adult male mice for a period of 10 days. Each mouse injected received a total dose of 2 mg over the 10 day period or 0.2 mg per day. The mice were random bred males of the ICR-Swiss strain and were used in the study when they reached 75±2 days of age. Mice were maintained in air-conditioned and light-controlled (14 hour light/24 hour) animal quarters and provided with lab food and water ad libitum. Animals were necropsied 24 hours after the last injection. Testes and seminal vesicles were excised, trimmed of adhering tissue and weighed fresh at the nearest one-tenth milligram.

rat testis tubules [2] = test: glucose oxidation (glucose-U-14C) by rat testis tubules in vitro; format: cell-based; conditions: for AVERAGE glucose oxidation: average of flasks; for depression of glucose oxidation in vitro: in words; for GLUCOSE OXIDATION per 100 mg / GLUCOSE OXIDATION per flask: individual flask, 250 mg per flask (so in the source), 2 hours, 33° C; for % DEVIATION FROM CONTROL, glucose oxidation: versus saline, 120 min
Method: (§1) For these investigations the compounds were diluted in a minimal amount of ethanol and further diluted in saline (0.85%) so that the final concentration was 1 mg/ml. The compounds were placed in solution and gassed under N2 and stored at 5° C until used 2 days later for the in vitro incubation studies. Details of the in vitro incubation procedures may be found in Endocrinology 89:791-800 (1971).
The effects of these compounds on glucose oxidation by testis tubules was examined by incubating about 200 mg of teased testis tubules from mature rats in a 25 ml Erlenmeyer flask containing 3 ml of Krebs Ringer bicarbonate buffer (pH 7.4), D-glucose-U-^14 C (0.5 μCi; 10mM) and 0.25 ml of the azasteroid (1 mg/ml) to be tested. The flasks were incubated for 2 hours at 33° C under 95% O2 :5% CO2. The reaction was terminated by adding 0.25 ml of 5 N H2 SO4. Carbon dioxide was trapped in 0.25 ml of hydroxide of Hyamine. The radioactivity present in the Hyamine was determined by liquid scintillation spectrometry. This table includes a detailed summary of the results obtained and an average for each compound. […] Thus, the compounds have potential for antifertility activity in the control of wild rodent populations and possibly stray animals such as dogs and cats.
CPM = counts per minute. Glucose-U-^14 C activity was 0.5 millicurie.
All compounds were tested in a concentration of 250 mg per flask.

rat testis tubules [3] = test: lysine-U-14C incorporation into protein by rat testis tubules in vitro; format: cell-based; conditions: for AVERAGE OF TWO FLASK lysine incorporation: average of two flasks; for protein synthesis by teased testis tubules: in words; for lysine incorporation into protein per 100 mg / lysine incorporation into protein per flask: individual flask, 250 mg per flask (so in the source), 1 hour, 33° C
Method: as §1
The effects of the compounds on the incorporation of lysine -U-^14 C into trichloroacetic (TCA) precipitable protein of rat testes was investigated by incubating about 200 mg of teased testis tubules from mature rats in a 25 ml Erlenmeyer flask containing 3 ml of Krebs Ringer bicarbonate buffer (pH 7.4), L-lysine-U-^14 C (0.5 μCi; 0.1mM), glucose (10 mM) and 0.25 ml of the azasteroid to be tested. The flasks were incubated for 1 hour at 33° C under 95% O2 : 5% CO2 and the TCA precipitable protein was isolated and an aliquot used to measure radioactivity.
CPM = counts per minute. All compounds were tested in a concentration of […]

L-M cells = test: growth inhibition of mouse L-M cell line; format: cell-based
Method: Cells (1 × 10^5 /ml) were added to the "incubated" compound-containing medium.

KB cells [4] = test: growth inhibition of human tumor KB cell line; format: cell-based; conditions: 10 μg/ml or greater, read-out: concentration at which growth was inhibited
Method: For example, growth of both the human tumor KB* and the mouse L-M** cell lines was inhibited when the cells were grown in media containing 10 μg/ml or greater

KB cells [5] = test: relative plating efficiency of KB cells (colony formation, 7 days); format: cell-based, human
Method: The KB cells were plated in plastic tissue culture dishes and grown in a 5% CO2 gas phase incubator for 7 days. The medium was removed, the plates washed with Hanks' salt solution and the cells stained with a 0.5% aqueous crystal violet solution, rinsed and dried. The colonies were counted and the relative plating efficiency calculated using the number of control colonies as 100 percent.

Cells (1 × 10^5 /ml) = test: potency after pre-incubation of compound in growth medium without cells; format: cell-based; conditions: 4 days
Method: To ascertain if the potency of compound 5d was reduced during the incubation in the growth medium in the absence of cells, compound 5d (20 μg/ml) was added to the medium and incubated at 37° C on a shaker for 4 days. Cells (1 × 10^5 /ml) were added to the "incubated" compound-containing medium. The inhibition pattern obtained from the "incubated" medium was identical to that obtained when compound 5d (20 μg/ml) was added simultaneously with the inoculation. […] Since the compounds are not inactivated by serum, their effectiveness for animal use or human tests is enhanced. This fact is stressed in animal studies recited in Example IX below.

[6] = test system: acid phosphatase, KB and L-M cells; test: relative acid phosphatase staining (permeability of lysosomal membrane) of KB and L-M cells; format: cell-based, human (KB) and mouse (L-M); set-up: key to Relative acid phosphatase staining: light: cells showing only a few scattered granules; medium: more dense but distinct isolated granules were still detected; heavy: a more intense staining with fewer discrete granules; conditions: 20 μg/ml
Method: KB and L-M cells were grown on coverslips in medium 199 with 10% calf serum for the 24 hour growth prior to staining in the presence or absence of compound 5c (20 μg/ml) or compound 5d (20 μg/ml). The cells were washed in Hanks' salt solution, incubated at 37° C in Gomori's substrate solution for 1, 2, or 3 hours, washed, treated with a 1% solution of ammonium sulfide, washed, mounted and observed microscopically. Light staining was designated as cells showing only a few scattered granules; medium staining was more dense but distinct isolated granules were still detected; and heavy staining a more intense staining with fewer discrete granules. Heavy staining denotes increased phosphatase activity.
The acid phosphatase activity was measured in KB and L-M cells grown in medium in the presence or absence compound 5c or 5d (20 μg/ml) for 2 or 24 hours prior to staining (Table 2). Quantitative evaluation of the relative staining intensity of the lysosomes was compared in the treated and untreated cells. […] Thus, cells grown in the presence of compound 5c accumulate the phosphatase substrate within the lysosomes much more rapidly than the control or compound 5d treated cells indicating the compounds ability to alter membrane permeability and thus regulate the accumulation of essential metabolites. Control of this cellular capacity permits regulation of cell division so important in cancer chemotherapy. Since the permeation of the substrate is the rate-limiting step in the phosphatase determination, compound 5c produces a modification of the lysosomal membrane which increased the permeability of the lysosome to the substrate. The results also emphasize the difference in biological activity of compound 5c and 5d type molecules which chemically are similar except at C-3. Differences in the biological activity have been observed when the compounds were tested using various bacteria.

B. subtilis W23 = test: antimicrobial activity in combination with selected antibiotics; format: cell-based; conditions: alone; B. subtilis W23
Method: Several antibiotics act at the cell surface. The antimicrobial activity of the hydroxybenzindazole in combination with selected antibiotics was measured.
Both Polymyxin (Pfizer, Inc.) and Circulin (Upjohn Co.) are surface active compounds thought to cause disorganization of the cell membrane leading to a loss of intracellular components. The enhanced antimicrobial activity observed with the combination of hydroxybenzindazole and antibiotics denotes a more pronounced distortion in the cell surface. Thus, much lower concentrations of the compounds can be used in medicinal applications providing an opportunity for toxic compounds to have greater medicinal applicability and use.
Failure of the mixture of hydroxybenzindazole and chloramphenicol to show an enhanced inhibition of growth could be correlated with the internal site of action of chloramphenicol, which is blockage of the binding of the 30s and 50s ribosomal subunits.

SMILES	Body Weight [1] [g]	Mg Testes Per g Body Wt. [1] [Mg per g]	Seminal Vesicle weight [1] [mg]	Testes Paired weight [1] [mg]	AVERAGE glucose oxidation (rat testis tubules [2])	depression of glucose oxidation in vitro (rat testis tubules [2])	GLUCOSE OXIDATION per 100 mg (rat testis tubules [2])	GLUCOSE OXIDATION per flask (rat testis tubules [2])	% DEVIATION FROM CONTROL, glucose oxidation (rat testis tubules [2])	AVERAGE OF TWO FLASK lysine incorporation (rat testis tubules [3])	protein synthesis by teased testis tubules (rat testis tubules [3])	lysine incorporation into protein per 100 mg (rat testis tubules [3])	lysine incorporation into protein per flask (rat testis tubules [3])	further results
CC12CCc3cc(O)ccc3C1=NNC2=O (racemic) [Compound 4c]	35.7	7.28	82.1	261.0	8,705 CPM/100 mg TISSUE	comparable to saline	8,847 CPM/100 mg and 8,564 CPM/100 mg	17,350 CPM/FLASK and 17,325 CPM/FLASK	-19.94%	1,389 CPM/100 mg tissue	depress protein synthesis	1,309 CPM/100 mg and 1,470 CPM/100 mg	2,575 CPM/FLASK and 2,925 CPM/FLASK	–
COc1ccc2c3c(ccc2c1)C1=NCCC1(C)CC3 (centres unmarked) [Compound 5d, 1,10,11,11a-tetrahydro-7-methoxy-11a-methyl-2H-naphth[1,2-g]indole]	32.3	6.32	67.7	201.6	12,140 CPM/100 mg TISSUE	depressed glucose oxidation in vitro more than compounds 4 c and 11b	16,081 CPM/100 mg and 8,200 CPM/100 mg	32,194 CPM/FLASK and 16,539 CPM/FLASK	+17.4%	1,565 CPM/100 mg tissue	depress protein synthesis	1,585 CPM/100 mg and 1,546 CPM/100 mg	3,225 CPM/FLASK and 3,125 CPM/FLASK	growth rate versus control (L-M cells; 1 μg/ml): same growth rate as the control; growth inhibition at 20 μg/ml (L-M cells; 20 μg/ml): depressed the growth rate only slightly over the rate observed with 10 μg/ml; inhibition at 10 µg/mL (L-M cells; Mus musculus, 96 h, 10 μg/ml, fourth day, read-out: reduction in growth as compared to the control): 30%; minimal effective concentration (L-M cells; Mus musculus, L-M cells, 10 μg/ml or greater, read-out: concentration at which growth was inhibited): ≥ 10 µg/mL; minimal effective concentration (KB cells [4]): ≥ 10 µg/mL; effect on the relative plating efficiency (KB cells [5]; 1 μg/ml): little effect; inhibition of growth compared with control culture (KB cells [5]; 10 and 20 μg/ml): only a very slight inhibition of growth; activity at 1 µg/mL (KB cells [5]; Homo sapiens, KB, 168 h, 1 μg/ml): 97%; activity at 10 µg/mL (KB cells [5]; Homo sapiens, KB, 168 h, 10 μg/ml): 82%; activity at 20 µg/mL (KB cells [5]; Homo sapiens, KB, 168 h, 20 μg/ml): 79%; inhibition pattern from incubated medium versus simultaneous addition (Cells (1 × 10^5 /ml); 20 μg/ml, medium pre-incubated 37° C): identical; detoxification by auto-oxidation or enzymatic (serum) processes in culture medium (Cells (1 × 10^5 /ml); 37° C): does not occur; Relative acid phosphatase staining ([6]; 24 h, 1 hour in substrate): none and did not stain; Relative acid phosphatase staining ([6]; 24 h, 2 hours in substrate): light; Relative acid phosphatase staining ([6]; 24 h, 3 hours in substrate): medium; staining reaction versus control ([6]; 24 h, all three substrate incubation times): identical staining reactions; staining intensity versus untreated cells ([6]; cells treated for 2 hours): indistinguishable from untreated cells
COc1ccc2c3c(ccc2c1)-c1[nH]ncc1CC3 [Compound 11b, 10,11-Dihydro-7-methoxy-3H-naphth[1,2-g]indazole]	34.0	6.67	88.7	229.0	9,550 CPM/100 mg TISSUE	comparable to saline	11,590 CPM/100 mg and 7,510 CPM/100 mg	23,529 CPM/FLASK and 15,382 CPM/FLASK	–	1,155 CPM/100 mg tissue	depress protein synthesis	1,194 CPM/100 mg and 1,116 CPM/100 mg	2,325 CPM/FLASK and 2,225 CPM/FLASK	–
CC1(C)S[C@@H]2[C@H](NC(=O)Cc3ccccc3)C(=O)N2[C@H]1C(=O)O [penicillin, reference compound]	–	–	–	–	–	–	–	–	–	–	–	–	–	inhibition of growth, tested separately (B. subtilis W23): very slight inhibition of growth

From patent publication US3987055A, “Azasteroids compounds and derivatives” (The Board of Regents for the Oklahoma Agricultural & …, priority 1974, dated 1976)
